Experimental data reported in PubChem BioAssay (NCI).
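Five compound concentrations were applied to cells in 96-well plates for 48 hours; endpoints were derived by simple linear interpolation of the resulting dose-response curve. TGI denotes the concentration required for complete inhibition of growth.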

Tests used:
Test in all cases: DTP human tumour cell line panel, 48 h
[1] = system: LXFL 529 NSCLC
[2] = system: RXF-631 renal
[3] = system: M19-MEL melanoma
[4] = system: HOP-18 NSCLC
[5] = system: XF 498 CNS

Compound: COc1cccc2c1C(=O)c1c(O)c3c(c(O)c1C2=O)C[C@@](O)(C(=O)CO)C[C@@H]3OC1CC(N)C(OC)C(C)O1 (stereo partly drawn)
- TGI [1]: 0.432 µM
- TGI [2]: 0.747 µM
- TGI [3]: 0.237 µM
- TGI [4]: 0.977 µM

Compound: COc1cc2c(cc1O)C1C(O)C(O)C=C3CCN(C2)C31 (stereo not drawn)
- TGI [1]: 34.9 µM
- TGI [2]: 28.2 µM
- TGI [5]: 4.36 µM
- TGI [3]: 8.84 µM
- TGI [4]: 8.19 µM

Compound: CC#C[P+](c1ccccc1)(c1ccccc1)c1ccccc1
- TGI [1]: 12.6 µM
- TGI [5]: 7.26 µM
- TGI [3]: 11.8 µM
- TGI [4]: 25.4 µM
